Measured values taken from US10759781B2, “Substituted guanidine derivatives” (UBE INDUSTRIES, LTD., priority 2015, dated 2020).

Experiments:
[1] = test system: Human normal hepatic sinusoid-like microvascular endothelial cells; type: cell-based; details: 2 days, 300 nM
Protocol: The Cytotoxicity Inhibition Test in Human Normal Hepatic Sinusoid-Like Microvascular Endothelial Cells
Human normal hepatic sinusoid-like microvascular endothelial cells were plated at 6000 cells/well in a collagen-coated 96-well culture plate. After one day of culture, the medium at each well was completely removed by aspiration and replaced with 50 μL of the compound solution diluted with the basal medium. The basal medium containing 0.1% DMSO was added to control wells. Following, the plate was incubated in CO2 incubator for 30 minutes. Fifty microliter of 2 mM methylamine diluted with the basal medium was added (final concentration 1 mM) to each negative control well (0% inhibition) as well as the compound-containing well, and 50 μL of the basal medium was added to each positive control well (100% inhibition). The plate was incubated in CO2 incubator for 2 days. Ten microliter of CCK-8 was added to each well and the mixtures were incubated in a plate incubator at 37° C. for approximately 2 hours after stirring with a plate shaker. The absorbance of the mixtures at 450 nm was measured with a multiplate reader. The cytotoxicity inhibition ratio of the compound was calculated from the following equation. Inhibition ratio={[Average absorbance of the compound-containing wells]−[Average absorbance of negative control wells]}/{[Average absorbance of positive control wells]−[Average absorbance of negative control wells]}×100

[2] = biological target: T1, Rat Plasma VAP-1 (Rattus norvegicus, UniProt O08590); test: (Ex vivo) rat plasma VAP-1 inhibition test after oral administration of the compound; type: in vivo; details: 3 hours after oral administration, SD male rats, read-out: inhibition ratio (plasma VAP-1, ex vivo)
T1 construct: from tissue; host or cells: plasma of SD male rats (7-12 weeks old) after oral dosing
T1 sequence (O08590 28-763 limits assumed): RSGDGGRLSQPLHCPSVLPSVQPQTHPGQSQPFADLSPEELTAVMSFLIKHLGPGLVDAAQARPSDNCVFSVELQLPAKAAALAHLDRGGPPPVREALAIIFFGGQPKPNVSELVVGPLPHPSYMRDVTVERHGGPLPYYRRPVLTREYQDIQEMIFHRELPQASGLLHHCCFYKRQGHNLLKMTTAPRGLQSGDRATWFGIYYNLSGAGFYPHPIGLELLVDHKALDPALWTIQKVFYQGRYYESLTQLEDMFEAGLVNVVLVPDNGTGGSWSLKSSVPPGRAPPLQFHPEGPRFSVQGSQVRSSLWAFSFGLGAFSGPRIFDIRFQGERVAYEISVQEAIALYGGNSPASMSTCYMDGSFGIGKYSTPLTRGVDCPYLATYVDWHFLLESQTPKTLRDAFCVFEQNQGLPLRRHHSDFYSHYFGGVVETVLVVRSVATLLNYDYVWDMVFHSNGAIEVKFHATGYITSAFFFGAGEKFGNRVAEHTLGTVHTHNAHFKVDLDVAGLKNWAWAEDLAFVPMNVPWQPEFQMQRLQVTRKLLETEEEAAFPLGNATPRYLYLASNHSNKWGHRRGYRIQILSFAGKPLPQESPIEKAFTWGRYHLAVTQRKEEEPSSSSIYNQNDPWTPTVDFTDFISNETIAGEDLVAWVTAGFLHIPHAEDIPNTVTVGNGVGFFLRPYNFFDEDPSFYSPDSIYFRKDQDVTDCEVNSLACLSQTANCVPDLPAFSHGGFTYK
Procedure, shortened: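 Male SD rats, 7–12 weeks, non-fasted, dosed orally at 0.3–10 mg/kg; jugular blood taken predose and 3, 8 and 24 h after dosing. Plasma incubated with 2.5 μM 14C-benzylamine for 3 h at 37 °C; extracted product counted by scintillation. Inhibition expressed relative to each animal's predose plasma activity.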

[3] = biological target: T2, Human VAP-1 enzyme (Homo sapiens, UniProt Q16853); test: Human VAP-1 enzyme inhibition test; type: biochemical; details: 1 h; compound 30 nM; 14C-benzylamine 100 μM; read-out: inhibition ratio (human VAP-1 enzyme)
T2 construct: purchased R&D Systems, Inc
T2 sequence (Q16853 1-763): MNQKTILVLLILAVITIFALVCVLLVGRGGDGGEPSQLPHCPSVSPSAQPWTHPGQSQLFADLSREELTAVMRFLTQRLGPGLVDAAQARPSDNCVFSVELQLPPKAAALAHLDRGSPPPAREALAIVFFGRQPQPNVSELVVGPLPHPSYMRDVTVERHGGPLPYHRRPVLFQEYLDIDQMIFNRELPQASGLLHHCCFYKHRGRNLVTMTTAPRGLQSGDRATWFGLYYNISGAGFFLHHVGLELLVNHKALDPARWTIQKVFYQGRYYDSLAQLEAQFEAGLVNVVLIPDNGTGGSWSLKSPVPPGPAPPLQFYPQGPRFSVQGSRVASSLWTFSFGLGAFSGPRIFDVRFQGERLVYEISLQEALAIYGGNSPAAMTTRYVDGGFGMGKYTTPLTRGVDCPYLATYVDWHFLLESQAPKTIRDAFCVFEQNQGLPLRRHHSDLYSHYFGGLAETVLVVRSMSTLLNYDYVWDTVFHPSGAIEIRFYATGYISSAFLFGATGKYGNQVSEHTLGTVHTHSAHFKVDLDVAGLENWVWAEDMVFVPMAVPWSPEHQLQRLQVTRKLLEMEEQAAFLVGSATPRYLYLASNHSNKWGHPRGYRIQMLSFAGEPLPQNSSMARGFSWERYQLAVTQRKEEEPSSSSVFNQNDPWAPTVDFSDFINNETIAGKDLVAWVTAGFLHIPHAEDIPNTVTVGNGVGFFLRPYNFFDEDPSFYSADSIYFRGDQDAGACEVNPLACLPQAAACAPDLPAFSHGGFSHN
Procedure, shortened: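 Activity measured as radioactive oxidation product of 14C-benzylamine (100 μM final), extracted with toluene/ethyl acetate after citric acid stop and scintillation-counted. Enzyme (recombinant human VAP-1) first exposed to compound 20 min at room temperature, reaction then 1 h at 37 °C. Percent inhibition versus DMSO control.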

CON=C1CN(c2ncc(-c3cccc(COC(=O)NC(=N)N)c3F)cc2F)C1 [Example 36, 2-fluoro-3-{5-fluoro-6-[3-(methoxyimino)azetidin-1-yl]pyridin-3-yl}benzyl carbamimidoylcarbamate]
≥ 50%: cytotoxicity inhibition ratio [1] | inhibition in vivo at 0.3 mg/kg [2] | inhibition at 0.03 µM [3]

[2H]C([2H])([2H])ON=C1CN(c2ncc(-c3cccc(COC(=O)NC(=N)N)c3F)cc2F)C1 [Example 37, 2-fluoro-3-(5-fluoro-6-{3-[(methoxy-d3)imino]azetidin-1-yl}pyridin-3-yl)benzyl carbamimidoylcarbamate]
≥ 50%: cytotoxicity inhibition ratio [1] | inhibition in vivo at 0.3 mg/kg [2] | inhibition at 0.03 µM [3]

N=C(N)NC(=O)OCc1cccc(-c2cnc(N3CC(=NOCCC(O)CO)C3)c(F)c2)c1F (stereo not drawn) [Example 95, 3-(6-{3-[(3,4-Dihydroxybutoxy)imino]azetidin-1-yl}-5-fluoropyridin-3-yl)-2-fluorobenzyl carbamimidoylcarbamate]
≥ 50%: cytotoxicity inhibition ratio [1] | inhibition in vivo at 0.3 mg/kg [2] | inhibition at 0.03 µM [3]

N=C(N)NC(=O)OCc1cccc(-c2cnc(N3CC(=NOCC(CO)CO)C3)c(F)c2)c1F [Example 96, 2-Fluoro-3-{5-fluoro-6-[3-{[3-hydroxy-2-(hydroxymethyl)propoxy]imino}azetidin-1-yl]pyridin-3-yl}benzyl carbamimidoylcarbamate]
≥ 50%: cytotoxicity inhibition ratio [1] | inhibition in vivo at 0.3 mg/kg [2] | inhibition at 0.03 µM [3]

N=C(N)NC(=O)OCc1cccc(-c2cnc(N3CC(=NOCC(F)CO)C3)nc2)c1F (stereo not drawn) [Example 102, 2-Fluoro-3-(2-{3-[(2-fluoro-3-hydroxypropoxy)imino]azetidin-1-yl}pyrimidin-5-yl)benzyl carbamimidoylcarbamate]
≥ 50%: cytotoxicity inhibition ratio [1] | inhibition in vivo at 0.3 mg/kg [2] | inhibition at 0.03 µM [3]
